pKi: −log10 of the molar value.
Legend:
recombinant human CES2 = biological target: T1, recombinant human CES2 (Homo sapiens, UniProt O00748); assay: p-Nitrophenyl acetate hydrolase activity of recombinant CES2; assay type: biochemical
T1 construct: purchased BD Gentest (Woburn, MA); host or cells: baculovirus-insect cells
T1 sequence (O00748 27-559): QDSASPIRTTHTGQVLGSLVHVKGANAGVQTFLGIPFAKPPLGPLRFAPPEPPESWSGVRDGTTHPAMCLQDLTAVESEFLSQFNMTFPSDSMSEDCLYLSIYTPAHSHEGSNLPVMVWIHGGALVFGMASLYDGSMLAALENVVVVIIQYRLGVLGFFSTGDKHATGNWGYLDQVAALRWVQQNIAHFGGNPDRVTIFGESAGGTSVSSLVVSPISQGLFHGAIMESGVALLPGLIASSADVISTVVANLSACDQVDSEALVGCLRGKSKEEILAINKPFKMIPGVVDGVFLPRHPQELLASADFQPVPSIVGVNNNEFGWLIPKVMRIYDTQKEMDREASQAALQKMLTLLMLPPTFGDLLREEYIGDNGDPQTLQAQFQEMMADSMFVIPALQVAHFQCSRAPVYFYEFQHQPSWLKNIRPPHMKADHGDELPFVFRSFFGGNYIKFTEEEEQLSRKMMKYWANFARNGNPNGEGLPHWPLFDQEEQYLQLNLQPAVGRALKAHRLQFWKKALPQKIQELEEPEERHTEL
Experimental: (§1) p-Nitrophenyl acetate hydrolase activity was determined according to the methods described previously.
(§2) To compare the inhibitory effects, the enzyme activities at 150 μM p-nitrophenyl acetate were examined. The concentrations of the tested excipients were 500 μM, except that F68, EL35, RH40, lecithin, PVP and Sodium alginate were 100 μg/ml. […] The concentration range of inhibitors was as follows: SLS, 0.02–0.5 μg/ml, RH40, 0.1–5 μg/ml, Tween 20, 0.5–15 μg/ml, and EL 35, 3–40 μg/ml.

[1] = biological target: T2, human liver microsomes (HLM) (Homo sapiens, UniProt P23141); assay: Imidapril hydrolase activity (imidaprilat formation) of HLM; assay type: biochemical
T2 construct: Pooled human liver microsomes (HLM) were purchased from BD Gentest; tissue BD Gentest (Woburn, MA); host or cells: pooled human liver microsomes
T2 sequence (P23141 18-567): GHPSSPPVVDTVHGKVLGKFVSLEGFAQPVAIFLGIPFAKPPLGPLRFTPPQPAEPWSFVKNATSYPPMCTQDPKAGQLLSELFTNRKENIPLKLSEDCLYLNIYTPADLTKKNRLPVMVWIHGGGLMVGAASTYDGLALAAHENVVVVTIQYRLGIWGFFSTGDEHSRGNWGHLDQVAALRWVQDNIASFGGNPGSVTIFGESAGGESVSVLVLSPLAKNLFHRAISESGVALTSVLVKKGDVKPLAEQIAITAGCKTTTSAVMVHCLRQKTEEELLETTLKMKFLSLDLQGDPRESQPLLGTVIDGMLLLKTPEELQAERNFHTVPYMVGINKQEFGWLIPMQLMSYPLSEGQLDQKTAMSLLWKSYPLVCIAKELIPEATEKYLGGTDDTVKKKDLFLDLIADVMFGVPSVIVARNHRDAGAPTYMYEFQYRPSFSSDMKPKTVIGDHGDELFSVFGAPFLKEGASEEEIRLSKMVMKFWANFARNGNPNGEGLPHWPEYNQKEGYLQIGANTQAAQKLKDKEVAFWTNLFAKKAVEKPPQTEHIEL
Experimental: Formation of imidaprilat from imidapril was determined according to the method described previously with a slight modification. The incubation mixture (200 μl of total volume), including the microsomes, 100 mM Tris-HCl buffer (pH 7.4) and inhibitors, was preincubated at 37°C for 2 min. The reaction was initiated by the addition of imidapril (100 μM), followed by incubation of the mixture at 37°C for 15 min. The reaction was terminated by adding 200 μl of ice-cold ethyl acetate and the mixture was next dried under N2. Cetirizine was added as an internal standard. After centrifugation at 15000 g for 5 min, imidaprilat in the supernatant (10 μl) was quantified employing a liquid chromatography-tandem mass spectrometry system. Diamonsil C18 (5 μm,150×2.1 mm) was used as the analytical column, with acetonitrile-0.1% (v/v) formic acid (1∶2, v/v) as the mobile phase at a flow rate of 0.3 mL·min^−1. […]
The inhibitory effects of 25 excipients on imidapril and CPT-11 hydrolase activities were investigated. […] All data were analysed using the mean of duplicate determinations. […]
(§3) The Ki, Km and Vmax values and inhibition types were determined by fitting the kinetic data to a competitive, noncompetitive, uncompetitive or mixed inhibition model by the Enzyme Kinetics Module using SigmaPlot 12.0 (Systat Software, Inc., San Jose, CA). […]

recombinant human CES1A1 [2] = biological target: T3, recombinant human CES1A1 (Homo sapiens, UniProt P23141); assay: p-Nitrophenyl acetate hydrolase activity of recombinant CES1A1; assay type: biochemical
T3 construct: purchased BD Gentest (Woburn, MA); host or cells: baculovirus-insect cells
T3 sequence (P23141 18-567): T2 sequence (P23141 18-567)
Experimental: as §1, §2

recombinant human CES1A1 [3] = biological target: T3, recombinant human CES1A1; assay: Imidapril hydrolase activity (imidaprilat formation) of recombinant CES1A1; assay type: biochemical
Experimental: Formation of imidaprilat from imidapril was determined according to the method described previously with a slight modification. The incubation mixture (200 μl of total volume), including the microsomes, 100 mM Tris-HCl buffer (pH 7.4) and inhibitors, was preincubated at 37°C for 2 min. The reaction was initiated by the addition of imidapril (100 μM), followed by incubation of the mixture at 37°C for 15 min. The reaction was terminated by adding 200 μl of ice-cold ethyl acetate and the mixture was next dried under N2. Cetirizine was added as an internal standard. After centrifugation at 15000 g for 5 min, imidaprilat in the supernatant (10 μl) was quantified employing a liquid chromatography-tandem mass spectrometry system. Diamonsil C18 (5 μm,150×2.1 mm) was used as the analytical column, with acetonitrile-0.1% (v/v) formic acid (1∶2, v/v) as the mobile phase at a flow rate of 0.3 mL·min^−1. The calibration curve of imidaprilat in the incubation mixture was linear over a concentration range of 5–1000 ng·ml^−1 (r = 0.9991). Interday and intraday coefficients of variation of the different quality control samples were both less than 10%.
The inhibitory effects of 25 excipients on imidapril and CPT-11 hydrolase activities were investigated. These excipients were classified into 6 groups based on their chemical and physical characteristics: (1) Adhesives: HPC, PVP, CMC-Na, PEG4000, PEG6000 and sodium alginate; (2) Fillers: lactose, MCC and mannitol; (3) Co-solvents: PG, glycerin, PEG200 and PEG400; (4) Surfactants: Tween 20, Tween 80, SLS, S40, F68, Triton X-100, RH40 and EL35; (5) Absorption enhancers: lecithin and oleic acid; (6)Antioxidants: Vit.C and NaHSO3. […] All data were analysed using the mean of duplicate determinations. […]
as §3

CES1A1 and CES2 = biological target: CES1A1 and CES2; set-up: method as in PMID 20810539; details: human CES enzyme activity; isoform per drug not stated; read-out: inhibition constant (Ki); cited from earlier work
[4] = 150 μM p-nitrophenyl acetate, excipients 500 μM except F68, EL35, RH40, lecithin, PVP, sodium alginate 100 μg/ml

Row | SMILES | p-nitrophenyl acetate hydrolase activity, percentage of control (recombinant human CES2; [4]) | IC50, p-nitrophenyl acetate hydrolase activity (recombinant human CES2; 150 μM substrate) [µg/mL] | inhibition type, imidapril hydrolase activity [1] | p-nitrophenyl acetate hydrolase activity, percentage of control (recombinant human CES1A1 [2]; [4]) [%] | IC50, p-nitrophenyl acetate hydrolase activity (recombinant human CES1A1 [2]; 150 μM substrate) [µg/mL] | imidapril hydrolase activity, percentage of control (recombinant human CES1A1 [3]; 100 μM imidapril, excipients 500 μM except F68, EL35, RH40, lecithin, PVP, sodium alginate 100 μg/ml, control 1.83 nmol/min/mg) [%] | inhibition type, imidapril hydrolase activity (recombinant human CES1A1 [3]; recombinant CES1A1) | Ki, imidapril hydrolase activity (recombinant human CES1A1 [3]; recombinant CES1A1, imidapril 25-200 μM, mean ± S.E.) [µg/mL] | pKi (CES1A1 and CES2)
1 | CCCCCCCCCCCCOS(=O)(=O)[O-].[Na+] [SLS, sodium lauryl sulphate] | 30–60% | 0.30 | competitive-type | 3.6 | 0.20 | 2.9 | competitive-type | 0.04 ± 0.01 | –
2 | CCC(C)(C)C(=O)O[C@H]1C[C@@H](C)C=C2C=C[C@H](C)[C@H](CC[C@@H]3C[C@@H](O)CC(=O)O3)[C@H]21 [simvastatin] | – | – | – | – | – | – | – | – | 6.96
3 | Cc1c(C)c2c(c(C)c1O)CCC(C)(COc1ccc(CC3SC(=O)NC3=O)cc1)O2 (stereo not shown) [troglitazone] | – | – | – | – | – | – | – | – | 6.21

Source: article PMC3974814, “In Vitro Evaluation of the Inhibitory Potential of Pharmaceutical Excipients on Human Carboxylesterase 1A and 2” (PLoS ONE, 2014)
